In US20060258647A1, “Treatment of maladaptive substance use with cholecystokinin (CCK) antagonists” (The Regents of the University of California, priority 2005, published 2006):
Entries after “also recorded” stand apart in the source; their conditions may differ.

Key:
Sprague-Dawley rats [1] = test: Expression of morphine CPP after microinjection into anterior or posterior nucleus accumbens (NAcc); format: in vivo, rat; settings: CCK-4 10 ng, CCK-8 100 ng (legend 10 ng), raclopride 4 μg; for expression of morphine CPP, microinjected independently into anterior NAcc: L-365, 260 1 ng (p=0.002), SCH-23390 2 μg; for expression of morphine CPP, microinjected independently into anterior NAcc / expression of morphine CPP, microinjected independently into posterior NAcc: lorglumide 15 ng; for expression of morphine CPP, microinjected independently into posterior NAcc: L-365, 260 1 ng (p=0.021), SCH-23390 2 μg (p=0.049); for effect of co-injection on the L-365, 260 effect (attenuation) on morphine CPP, anterior NAcc: co-injected with L-365, 260 into anterior NAcc; for effect of co-injection on the L-365, 260 effect (potentiation) on morphine CPP, posterior NAcc: co-injected with L-365, 260 into posterior NAcc
Procedure: (§1) 68 male Sprague-Dawley rats (Charles River, Wilmington, Mass.) weighing 275-300 grams at the onset of the study were individually housed in a temperature controlled environment (70° F.) and kept on a 12 hour light/dark cycle. Rat chow and water were available ad libitum. Animals were tested at the same time during their light cycle each day. All experimental protocols were approved by the Institutional Animal Care and Use Committee and were conducted in accordance with the Guide for the Care and Use of Laboratory Animals (N1H). 22 rats were used for systemic injections and the remaining rats were cannulated for NAcc microinjections.
Animals were anesthetized with a ketamine-xylazine mixture and maintained on isoflurane (0.5 liter/min) as needed for the duration of surgery. Animals were placed in a stereotaxic frame and were implanted with bilateral 26-gauge stainless steel chronic guide cannulae (Plastics One, Roanoke, V A) into either the Anterior (AP, 2.2; ML, ±1.1; DV, −5.5) or Posterior (AP, 1.2; ML, ±1.1; DV, −5.5) NAcc. Cannulae were secured to the skull with dental cement. At the end of the surgical procedure, animals were treated with penicillin and topical antibiotics. A stainless steel dummy cannula (Plastics One) was inserted into each guide cannula and remained in place when the guide cannulae were not in use. Animals were allowed a 1-week recovery period prior to behavioral testing.
(§2) Animals were trained in 3 chamber place conditioning boxes (Med Associates) in which 2 chambers (28×21×21 cm) that differed in color (one black, one white), light level, and texture were separated by a neutral gray chamber (12×21×21). During the initial baseline period, animals were placed in the central chamber and were allowed to freely explore all 3 chambers for a period of 30 minutes. Beam breaks, entries, and time spent in each chamber were automatically recorded using infrared beams. […] During each conditioning session, animals were injected with either morphine or saline and were then immediately confined to one of the two larger chambers for 60 minutes. Rats received 2 conditioning sessions per day for a period of 4 days. Conditioning sessions were separated by a minimum period of 5 hours. Animals were tested for expression of conditioned place preference 1 day after the final conditioning session. Drug side and order were counter-balanced. […] Systemic L-365, 260 was administered 30 minutes before the onset of CPP testing.
All injection sites were based on the atlas of Paxinos and Watson (1998). Bilateral injections were made into either the Anterior (AP, 2.2; ML, +1.1; DV, −5.5) or Posterior (AP, 1.2; ML, ±1.1; DV, −5.5) NAcc. Each injection was made using a 1 μl syringe (Hamilton, Reno, Nev.) attached to 20 cm of PE 50 tubing connected to a 33-gauge injection cannula (Plastics One). Microinjections were given at a rate of 0.5 μl per minute using a syringe pump (kd Scientific, Holliston, M A). A volume of 0.5 μl was injected into each side of the NAcc. Injection cannulae extended 2 mm beyond guide cannulae and were left in place for 1 minute following microinjections to minimize the backflow of drug solution. 10 minutes after microinjection was completed, animals were placed into the central CPP chamber and allowed to explore for a period of 30 minutes. Animals received a maximum of four bilateral NAcc microinjections. The number of microinjections each animal received was determined by the persistence of place preference. […] Microinjection drug order was counterbalanced and began a minimum of one day following the test for expression of morphine CPP. Animals were tested for baseline expression of morphine CPP 24 hours following each microinjection to ensure the return to pre-injection baseline. At the conclusion of the experiment, animals were anesthetized with pentobarbital and perfused intracardially through the ascending aorta with 0.1M phosphate buffered saline followed by 10% formalin. […]

[2] = Jackson et al., 1994; cited from earlier work
Rats = test: Ethanol consumption / reinstatement with foot shock; format: in vivo, rat
Procedure: Rats (n=18) were administered 3 daily doses of systemic L-365 (1 mg/kg) prior to a one-hour ethanol (10%) access session. On the second day of L-365, 260 administration, animals were administered 0.8 mA of shock (0.5 seconds every 40 seconds for a period of 15 minutes) in ethanol access chambers directly prior to the onset of their one-hour access session. […] This was a randomized cross over design with each animal serving as its own control.
L-365, 260 had no effect on ethanol consumption when shock was administered during extinction (n=12). Animals were administered 3 daily doses of systemic L-365, 260 after ethanol consumption was extinguished. On the second day of L-365, 260 administration, animals were administered 0.8 mA of shock (0.5 seconds every 40 seconds for a period of 15 minutes) in the ethanol access chambers directly prior to the onset of their one-hour extinction session. This was a randomized cross over design with each animal serving as its own control.
L-365 had no effect on ethanol reinstatement when shock was administered on the first day of re-initiation of ethanol access (n=12). Animals were administered 3 daily doses of systemic L-365, 260 after ethanol consumption was extinguished. On the first day of L-365, 260 administration, animals were administered 0.8 mA of shock (0.5 seconds every 40 seconds for a period of 15 minutes) in the ethanol access chambers directly prior to the onset of their one-hour reinstatement session. This was a randomized cross over design with each animal serving as its own control.

Sprague-Dawley rats [3] = test: Expression of morphine conditioned place preference (CPP) after systemic administration; format: in vivo, rat; settings: 1 mg/kg systemic (i.p.)
Procedure: as §1
as §2, with “testing. […]” for “testing.”
*Difference scores were calculated by subtracting the time spent in the saline paired chamber from the time spent in the morphine paired chamber during a test session. […]

humans = settings: literature (Murphy et al., 1993 and others); cited from earlier work

Compound | expression of morphine CPP, microinjected independently into anterior NAcc (Sprague-Dawley rats [1]) | expression of morphine CPP, microinjected independently into posterior NAcc (Sprague-Dawley rats [1]) | differentiation from saline in animal discrimination studies [2] | ethanol consumption on the two days following shock (Rats; 3 daily systemic doses 1 mg/kg before one-hour ethanol (10%) access, 0.8 mA shock on second day, n=18, vs saline controls) | ethanol consumption when shock was administered during extinction (Rats; 3 daily systemic doses after ethanol consumption was extinguished, shock on second day, n=12) | ethanol reinstatement when shock was administered on the first day of re-initiation of ethanol access (Rats; 3 daily systemic doses after extinction, shock on first day, n=12) | expression of morphine CPP (Sprague-Dawley rats [3]; after acquisition of CPP, tested immediately after injection, p=0.006) | expression of morphine CPP (Sprague-Dawley rats [3]; tested 24 hours after injection, p=0.0009) | expression of morphine CPP (Sprague-Dawley rats [3]; tested 72 hours after injection, p=0.004) | side effects on administration to humans (humans) | expression of morphine CPP, microinjected independently into anterior NAcc (Sprague-Dawley rats [1]; listed as Lorglumide) | expression of morphine CPP, microinjected independently into posterior NAcc (Sprague-Dawley rats [1]; listed as Lorglumide) | expression of morphine CPP, microinjected independently into anterior NAcc (Sprague-Dawley rats [1]; listed as Raclopride) | effect of co-injection on the L-365, 260 effect (attenuation) on morphine CPP, anterior NAcc (Sprague-Dawley rats [1]) | effect of co-injection on the L-365, 260 effect (potentiation) on morphine CPP, posterior NAcc (Sprague-Dawley rats [1]) | expression of morphine CPP, microinjected independently into posterior NAcc (Sprague-Dawley rats [1]; listed as Raclopride)
Cc1cccc(NC(=O)N[C@@H]2N=C(c3ccccc3)c3ccccc3N(C)C2=O)c1 [L-365, 260, (3R-(+)-2,3-dihydro-1-methyl-2-oxo-5-phenyl-1H-1,4-benzodiazepin-3-yl)-N′-(3-methylphenyl)urea] | attenuates | potentiates | cannot be differentiated from saline | consumed significantly less ethanol than saline controls | had no effect | had no effect | attenuates | attenuates | attenuates | no significant side effects | – | – | – | – | – | –
CCCCCN(CCCCC)C(=O)C(CCC(=O)O)NC(=O)c1ccc(Cl)c(Cl)c1 (stereo not shown) [lorglumide] | has no effect | has no effect | – | – | – | – | – | – | – | – | had no effect | had no effect | – | – | – | –
CCN1CCC[C@H]1CNC(=O)c1c(O)c(Cl)cc(Cl)c1OC [raclopride] | has no effect | has no effect | – | – | – | – | – | – | – | – | – | – | had no effect | reverse the effects of L-365, 260 | reverse the effects of L-365, 260 | had no effect
CCK-4 | neither of which had an effect; also recorded: neither of which has an effect | neither of which had an effect; also recorded: neither of which has an effect | – | – | – | – | – | – | – | – | – | – | – | reversed | reversed | –
CCK-8: cholecystokinin peptide, CCKB receptor ligand precursor, obtained from Research Biochemicals | neither of which had an effect; also recorded: neither of which has an effect | neither of which had an effect; also recorded: neither of which has an effect | – | – | – | – | – | – | – | – | – | – | – | reversed | reversed | –
